Experimental data as given in patent US20100286145A1, “ISOPHTHALAMIDE DERIVATIVES INHIBITING BETA-SECRETASE ACTIVITY” (CoMentis, Inc., priority 2007, published 2010).
Like-named read-outs stand apart in the source and are kept apart here.

What was measured:
memapsin 2 = memapsin 2 (Homo sapiens, UniProt P56817); experiment: Inhibition of memapsin 2 beta-secretase activity (fluorogenic substrate FS-2); format: biochemical; conditions: memapsin 2, pH 4, 37° C., read-out: M2Ki
How it was run: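 Kinetic fluorogenic assay: hydrolysis of the MCA/DNP-labelled APP Swedish-variant peptide FS-2 monitored as fluorescence rise at 37° C, pH 4, after 20 min enzyme–compound preincubation. Relative rates fitted with a tight-binding inhibitor model.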

[1] = test system: Aβ production in Chinese hamster ovary cells that over-express human APP695 with the London and Swedish mutations; experiment: Cellular Aβ IC50 determination (Aβ40 sandwich ELISA); format: cell-based; conditions: Cricetulus griseus
How it was run: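 Aβ40 in media quantified by sandwich ELISA, normalized to control incubations and fitted with a 4-parameter IC50 model. Compounds dosed to a final concentration near 4 μM (0.4% DMSO) on CHO cells expressing human APP695 (London and Swedish mutants) seeded at 10% confluency.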

[2] = cellular Aβ production, read-out: IC50

Sequence of memapsin 2 (P56817 46-501): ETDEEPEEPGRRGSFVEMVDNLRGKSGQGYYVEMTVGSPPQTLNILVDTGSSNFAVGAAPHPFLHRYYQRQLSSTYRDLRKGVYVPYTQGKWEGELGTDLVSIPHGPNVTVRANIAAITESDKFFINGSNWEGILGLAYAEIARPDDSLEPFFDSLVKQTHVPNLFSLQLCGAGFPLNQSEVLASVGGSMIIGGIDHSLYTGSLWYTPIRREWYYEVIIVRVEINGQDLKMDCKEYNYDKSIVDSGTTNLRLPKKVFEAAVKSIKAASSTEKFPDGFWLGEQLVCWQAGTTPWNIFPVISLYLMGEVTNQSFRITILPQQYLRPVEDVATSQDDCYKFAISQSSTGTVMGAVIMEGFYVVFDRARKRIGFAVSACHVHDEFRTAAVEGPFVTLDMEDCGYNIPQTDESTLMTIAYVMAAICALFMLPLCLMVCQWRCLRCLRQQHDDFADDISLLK

Row | Ki (memapsin 2; 20 minutes pre-incubation) [µM] | IC50 [1, 2] [µM] | Ki (memapsin 2; fluorogenic substrate FS-2) [µM] | SMILES | IC50 [1] [µM]
1 | < 0.3 | < 1 | – | COc1cccc(CNC[C@@H](O)[C@H](Cc2ccccc2)NC(=O)c2cc(C(=O)N(C)Cc3nc(C)cs3)cc(-c3ccccn3)c2)c1 [Compound 174, N1-((2S,3R)-3-hydroxy-4-(3-methoxybenzylamino)-1-phenylbutan-2-yl)-N3-methyl-N3-((4-methylthiazol-2-yl)methyl)-5-(pyridin-2-yl)isophthalamide] | –
2 | < 0.3 | < 1 | – | Cc1csc(CN(C)C(=O)c2cccc(C(=O)N[C@@H](Cc3ccccc3)[C@H](O)CN[C@@H](C)c3cncc(C(C)C)c3)c2)n1 [Compound 182, N1-((2S,3R)-3-hydroxy-4-((S)-1-(5-isopropylpyridin-3-yl)ethylamino)-1-phenylbutan-2-yl)-N3-methyl-N3-((4-methylthiazol-2-yl)methyl)isophthalamide] | –
3 | < 0.3 | < 1 | – | Cc1csc(CN(C)C(=O)c2cccc(C(=O)N[C@@H](Cc3ccccc3)[C@H](O)CNCc3cncc(Br)c3)c2)n1 [Compound 158, N1-((2S,3R)-4-((5-bromopyridin-3-yl)methylamino)-3-hydroxy-1-phenylbutan-2-yl)-N3-methyl-N3-((4-methylthiazol-2-yl)methyl)isophthalamide] | –
4 | < 0.3 | < 1 | – | Cc1csc(CN(C)C(=O)c2cc(C(=O)N[C@@H](Cc3ccccc3)[C@H](O)CNCc3cncc(C(C)C)c3)cc(N3CCCC3)c2)n1 [Compound 180, N1-((2S,3R)-3-hydroxy-4-((5-isopropylpyridin-3-yl)methylamino)-1-phenylbutan-2-yl)-N3-methyl-N3-((4-methylthiazol-2-yl)methyl)-5-(pyrrolidin-1-yl)isophthalamide] | –
5 | – | < 1 | < 0.3 | Cc1csc(CN(C)C(=O)c2cc(C(=O)N[C@@H](Cc3ccccc3)[C@H](O)CNCc3cncc(C(C)C)c3)cc(C(C)O)c2)n1 (stereo partly drawn) [Compound 223, N1-((2S,3R)-3-hydroxy-4-((5-isopropylpyridin-3-yl)methylamino)-1-phenylbutan-2-yl)-5-(1-hydroxyethyl)-N3-methyl-N3-((4-methylthiazol-2-yl)methyl)isophthalamide] | –
6 | – | < 1 | < 0.3 | COc1cc(CNC[C@@H](O)[C@H](Cc2ccccc2)NC(=O)c2cccc(C(=O)N(C)Cc3nc(C)cs3)c2)nc(N(C)C)n1 [Compound 212, N1-((2S,3R)-4-((2-(dimethylamino)-6-methoxypyrimidin-4-yl)methylamino)-3-hydroxy-1-phenylbutan-2-yl)-N3-methyl-N3-((4-methylthiazol-2-yl)methyl)isophthalamide] | –
7 | – | < 1 | 0.301 to 0.5 | CO/C=C(/C)c1cncc(CNC[C@@H](O)[C@H](Cc2ccccc2)NC(=O)c2cccc(C(=O)N(C)Cc3nc(C)cs3)c2)c1 [Compound 279, N1-((2S,3R)-3-hydroxy-4-((5-((Z)-1-methoxyprop-1-en-2-yl)pyridin-3-yl)methylamino)-1-phenylbutan-2-yl)-N3-methyl-N3-((4-methylthiazol-2-yl)methyl)isophthalamide] | –
8 | < 0.3 | < 1 | – | COc1cccc(CNC[C@@H](O)[C@H](Cc2ccccc2)NC(=O)c2cc(OS(C)(=O)=O)cc(C(=O)N[C@H](C)c3ccccc3)c2)c1 [Compound 70, 3-((2S,3R)-3-hydroxy-4-(3-methoxybenzylamino)-1-phenylbutan-2-ylcarbamoyl)-5-((R)-1-phenylethylcarbamoyl)phenyl methanesulfonate] | –
9 | – | 1 to 5 | < 0.3 | Cc1csc(CN(C)C(=O)c2cccc(C(=O)N[C@@H](Cc3ccccc3)[C@H](O)CNCc3cncc(F)c3)c2)n1 [Compound 225, N1-((2S,3R)-4-((5-fluoropyridin-3-yl)methylamino)-3-hydroxy-1-phenylbutan-2-yl)-N3-methyl-N3-((4-methylthiazol-2-yl)methyl)isophthalamide] | –
10 | – | < 1 | < 0.3 | Cc1csc(CN(C)C(=O)c2cc(C(=O)N[C@@H](Cc3ccccc3)[C@H](O)CNCc3cncc(C(C)(C)F)c3)cc(-c3ccoc3)c2)n1 [Compound 270, N1-((2S,3R)-4-((5-(2-fluoropropan-2-yl)pyridin-3-yl)methylamino)-3-hydroxy-1-phenylbutan-2-yl)-5-(furan-3-yl)-N3-methyl-N3-((4-methylthiazol-2-yl)methyl)isophthalamide] | –
11 | < 0.3 | < 1 | – | COc1cccc(CNC[C@@H](O)[C@H](Cc2ccccc2)NC(=O)c2cc(C(=O)NCCO)cc(C(=O)N(C)Cc3nc(C)cs3)c2)c1 [Compound 44, N1-((2S,3R)-3-hydroxy-4-(3-methoxybenzylamino)-1-phenylbutan-2-yl)-N3-(2-hydroxyethyl)-N5-methyl-N5-((4-methylthiazol-2-yl)methyl)benzene-1,3,5-tricarboxamide] | –
12 | < 0.3 | < 1 | – | Cc1csc(CN(C)C(=O)c2cccc(C(=O)N[C@@H](Cc3ccccc3)[C@H](O)CNCc3cccc(C(C)(F)F)c3)c2)n1 [Compound 145, N1-((2S,3R)-4-(3-(1,1-difluoroethyl)benzylamino)-3-hydroxy-1-phenylbutan-2-yl)-N3-methyl-N3-((4-methylthiazol-2-yl)methyl)isophthalamide] | –
13 | < 0.3 | < 1 | – | Cc1csc(CN(C)C(=O)c2cccc(C(=O)N[C@@H](Cc3ccccc3)[C@H](O)CNCc3cccc(C(C)Cl)c3)c2)n1 (stereo partly drawn) [Compound 173, N1-((2S,3R)-4-(3-(1-chloroethyl)benzylamino)-3-hydroxy-1-phenylbutan-2-yl)-N3-methyl-N3-((4-methylthiazol-2-yl)methyl)isophthalamide] | –
14 | < 0.3 | 1 to 5 | – | COc1cccc(CNC[C@@H](O)[C@H](Cc2ccccc2)NC(=O)c2cccc(C(=O)N(C)Cc3ccn(C)n3)c2)c1 [Compound 61, N1-((2S,3R)-3-hydroxy-4-(3-methoxybenzylamino)-1-phenylbutan-2-yl)-N3-methyl-N3-((1-methyl-1H-pyrazol-3-yl)methyl)isophthalamide] | –
15 | – | < 1 | < 0.3 | Cc1csc(CN(C)C(=O)c2cc(C(=O)N[C@@H](Cc3ccccc3)[C@H](O)CNCc3cncc(C(C)(C)C)c3)cc(N(C)C)c2)n1 [Compound 226, N1-((2S,3R)-4-((5-tert-butylpyridin-3-yl)methylamino)-3-hydroxy-1-phenylbutan-2-yl)-5-(dimethylamino)-N3-methyl-N3-((4-methylthiazol-2-yl)methyl)isophthalamide] | –
16 | < 0.3 | < 1 | – | Cc1csc(CN(C)C(=O)c2cccc(C(=O)N[C@@H](Cc3ccccc3)[C@H](O)CNCc3cc(C(C)(C)C)ccc3O)c2)n1 [Compound 111, N1-((2S,3R)-4-(5-tert-butyl-2-hydroxybenzylamino)-3-hydroxy-1-phenylbutan-2-yl)-N3-methyl-N3-((4-methylthiazol-2-yl)methyl)isophthalamide] | –

Row | SMILES | Ki (memapsin 2; 20 minutes pre-incubation) [µM] | IC50 [1, 2] [µM] | Ki (memapsin 2; fluorogenic substrate FS-2) [µM] | IC50 [1] [µM]
17 | COP(=O)(OC)Oc1cc(CNC[C@@H](O)[C@H](Cc2ccccc2)NC(=O)c2cccc(C(=O)N(C)Cc3nc(C)cs3)c2)cc(C(C)C)c1 [Compound 255, 3-(((2R,3S)-2-hydroxy-3-(3-(methyl((4-methylthiazol-2-yl)methyl)carbamoyl)benzamido)-4-phenylbutylamino)methyl)-5-isopropylphenyl dimethyl phosphate] | – | – | < 0.3 | < 1
